Like-named read-outs stand apart in the source and are kept apart here.
Experiments:
[1] = test system: SR cells (NPM-ALK, human anaplastic large cell lymphoma cells); experiment: Proliferation inhibition (IC50) in SR cells, CCK8 (WST) reagent; type: cell-based; details: 72 h
Experimental: (§1) The ALK gene rearrangement positive cell line used was SR cells (NPM-ALK, human anaplastic large cell lymphoma cells). MDA-MB231 was a triple-negative breast cancer cell. Both SR cells and MDA-MB231 cells were purchased from ATCC.
The tumor cell line used was daily cultured in a 37° C. incubator containing 5% CO2. The medium was RPMI1640 supplemented with 10% FCS and Penicillin-Streptomycin.
The IC50 of the compound of the present disclosure was determined using Promega's Cell Titer Blue, Cell Titer GLO or commercially available WST reagents. The specific steps were as follows: the cells were seeded in a 96-well plate containing 100 microliters of RPMI medium containing serum at a number of 2000 cells/well. On the second day, the original drug and the compound of the present disclosure were serially diluted and added to the cells. After 72 hours of treatment with the compound of the present disclosure, the cell activity detection reagent was added to the culture medium for cell activity determination according to the instructions. The negative control was DMSO, and the positive control was the original drug, and the cells were treated in the same manner as the compound of the present disclosure. The growth inhibition of the compounds of the present disclosure on cells was plotted by Prism Graphpad software and the IC50 of the compounds of the present disclosure was counted from it.
We conducted dose-dependent experiments on the designed and synthesized compounds of the present disclosure in SR cells. […] The cells were treated with different concentrations of compounds (starting at 10 μM, 3 times dilution factor, 10 concentrations). After 72 hours, the cells were detected using CCK8 reagent (WST).

ALK protein = biological target: T1, ALK protein (Homo sapiens, UniProt Q9UM73); experiment: Western blot of ALK protein degradation in SR cells; type: cell-based
T1 construct: We studied the total ALK protein in the anaplastic large cell lymphoma cell line SR; host or cells: SR cells (human anaplastic large cell lymphoma); the other entry of the earlier key: NPM1 (P06748, Nucleophosmin)
T1 sequence (Q9UM73 with tags, fused parts or gaps): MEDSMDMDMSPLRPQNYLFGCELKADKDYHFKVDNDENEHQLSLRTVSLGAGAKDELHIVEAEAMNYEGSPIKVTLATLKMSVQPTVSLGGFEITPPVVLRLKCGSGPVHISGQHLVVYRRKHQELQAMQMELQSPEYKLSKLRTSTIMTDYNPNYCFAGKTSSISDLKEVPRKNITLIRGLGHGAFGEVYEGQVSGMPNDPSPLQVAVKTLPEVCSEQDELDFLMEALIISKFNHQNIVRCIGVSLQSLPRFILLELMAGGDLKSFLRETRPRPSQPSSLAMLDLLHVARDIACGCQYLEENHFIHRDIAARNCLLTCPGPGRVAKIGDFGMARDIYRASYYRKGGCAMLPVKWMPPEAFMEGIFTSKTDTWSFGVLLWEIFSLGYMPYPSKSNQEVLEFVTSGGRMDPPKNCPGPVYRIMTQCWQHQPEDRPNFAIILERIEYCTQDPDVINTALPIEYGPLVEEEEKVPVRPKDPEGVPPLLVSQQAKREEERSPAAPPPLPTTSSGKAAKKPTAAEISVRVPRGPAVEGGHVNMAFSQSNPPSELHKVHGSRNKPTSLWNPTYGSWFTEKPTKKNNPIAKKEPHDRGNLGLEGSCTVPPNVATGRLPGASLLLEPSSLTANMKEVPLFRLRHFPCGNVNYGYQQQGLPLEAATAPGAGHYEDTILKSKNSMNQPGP
Experimental: as §1, with “ATCC. The 293T cells overexpressing EML4-ALK G1202R were the cells constructed and verified for correct expression by this laboratory.” for “ATCC.”
Tumor cells were seeded in a 24-well plate containing 1 ml of RPMI1640 medium at 1.5-3×10^5 cells/well. The next day, the cells were treated with different concentrations of drugs. After 16 hours, the supernatant was removed and the cells were washed with PBS. The cells were placed on ice and the cells were treated with RIPA protein lysate containing Halt protease and phosphatase inhibitors. The lysate was centrifuged at 10000RPM at 4° C. for 10 minutes, and the supernatant was collected. The same amount of protein was added to the 4×SDS sample solution, denatured at 95° C. for 5 minutes and freezen to −20° C., or protein electrophoresis was directly performed. GenScript, a 4-20% gradient protein precast gel was used as the electrophoresis gel. The electrophoresis tank and related components were purchased from Bio-rad, and the electrophoresis conditions were equal pressure 120 v for 2 hours. PVDF membrane was used for the transfer membrane, and the transfer membrane system was placed on ice with an equal current of 400 mA for one hour. After transferring the membrane, it was sealed with TBST+5% milk powder for half an hour. For the specific steps of immunoblotting, refer to the antibody instructions of Cell Signaling Technology.
DC50 (the drug concentration corresponding to protein degradation to 50%) calculation: according to the gray value of the Western blotting band after the drug is processed, the relationship curve between the drug concentration and the gray value is fitted by Prism GraphPad software to calculate the drug concentration range corresponding half of the gray value.
The cells with different concentrations (0, 10, 50, 100, 500 nM) of Brigatinib were first treated in SR cells for 16 hours. Western blotting was used on cell lysate to detect the effect of Brigatinib on the content of ALK protein (FIG. 2).

[2] = SR cells, WST reagent, 72 hours, read-out: IC50 (half inhibitory concentration), Brigatinib series in lymphoma cell lines

## COc1cc(N2CCC(N3CCNCC3)CC2)ccc1Nc1ncc(Cl)c(Nc2ccccc2P(C)(C)=O)n1 [Brigatinib derivative C (SIAIS164005), (2-((5-Chloro-2-((2-methoxy-4-(4-(piperazin-1-yl)piperidin-1-yl)phenyl)amino)pyrimidin-4-yl)amino)phenyl) dimethyl phosphine oxide, reference compound]
[1]; [2]
  IC50: 11.1 nM
ALK protein; 16 hours, concentrations up to 500 nM
  degradation effect on ALK protein: no degradation effect

## COc1cc(N2CCC(N3CCN(CCCCC#Cc4cccc5c4CN(C4CCC(=O)NC4=O)C5=O)CC3)CC2)ccc1Nc1ncc(Cl)c(Nc2ccccc2P(C)(C)=O)n1 (stereo not drawn) [SIAIS262040, 3-(4-(6-(4-(1-(4-((5-chloro-4-((2-(dimethylphosphono)phenyl)amino)pyrimidin-2-yl)amino)-3-methoxyphenyl)piperidin-4-yl)piperazin-1-yl)hex-1-yn-1-yl)-1-oxoisoindolin-2-yl)piperidine-2,6-dione]
[1]; [2]
  IC50: 1.1 nM
ALK protein; 16 hours, concentration range at half of the gray value, read-out: DC50 (half degradation concentration), Brigatinib series in lymphoma cell lines
  DC50: 0.05 to 0.5 nM

## CCc1cc2c(cc1N1CCC(N3CCN(C(=O)CNc4cccc5c4CN(C4CCC(=O)NC4=O)C5=O)CC3)CC1)C(C)(C)c1[nH]c3cc(C#N)ccc3c1C2=O (stereo not drawn) [SIAIS262091, 8-(4-(4-{(2-(2,6-dioxopiperidin-3-yl)-1-oxoisoindolin-4-yl)aminoacetyl)piperazin-1-yl)piperidin-1-yl)-9-ethyl-6,6-dimethyl-11-oxo-6,11-dihydro-5H-benzo[b]carbazole-3-carbonitrile]
[1]; read-out: IC50 (half inhibitory concentration), Alectinib series in lymphoma cell lines, SR cells, WST reagent, 72 hours
  IC50: ~0.34 nM
ALK protein
  concentration from which a degradation effect on ALK protein is shown: less than 0.005 nM
ALK protein; read-out: DC50 (half degradation concentration), Alectinib series in lymphoma cell lines, 16 hours, concentration range at half of the gray value
  DC50: 0.05 to 0.5 nM

## COc1cc(N2CCC(N3CCN(C(=O)COCCOCCNc4cccc5c4CN(C4CCC(=O)NC4=O)C5=O)CC3)CC2)ccc1Nc1ncc(Cl)c(Nc2ccccc2P(C)(C)=O)n1 (stereo not drawn) [SIAIS352054, 3-(4-((2-(2-(2-(4-(1-(4-((5-chloro-4-((2-(dimethylphosphono)phenyl)amino)pyrimidine-2-yl)amino)-3-methoxyphenyl)piperidin-4-yl)piperazin-1-yl)-2-oxoethoxy)ethoxy)ethyl)amino)-1-oxoisoindolin-2-yl)piperidine-2,6-dione]
[1]; [2]
  IC50: 22 ± 10.9 nM

## COc1cc(N2CCC(N3CCN(C(=O)COCCOCCOCCNc4cccc5c4CN(C4CCC(=O)NC4=O)C5=O)CC3)CC2)ccc1Nc1ncc(Cl)c(Nc2ccccc2P(C)(C)=O)n1 (stereo not drawn) [SIAIS352055, 3-(4-((2-(2-(2-(2-(4-(1-(4-((5-chloro-4-((2-(dimethylphosphono)phenyl)amino)pyrimidin-2-yl)amino)-3-methoxyphenyl)piperidin-4-yl)piperazin-1-yl)-2-oxoethoxy)ethoxy)ethoxy)ethyl)amino)-1-oxoisoindolin-2-yl)piperidine-2,6-dione]
[1]; [2]
  IC50: 15 ± 4.4 nM

## COc1cc(N2CCC(N3CCN(C(=O)COCCOCCOCCOCCNc4cccc5c4CN(C4CCC(=O)NC4=O)C5=O)CC3)CC2)ccc1Nc1ncc(Cl)c(Nc2ccccc2P(C)(C)=O)n1 (stereo not drawn) [SIAIS352056, 3-(4-((14-(4-(1-(4-((5-chloro-4-((2-(dimethylphosphono)phenyl)amino)pyrimidin-2-yl)amino)-3-methoxyphenyl)piperidin-4-yl)piperazin-1-yl)-14-oxo-3,6,9,12-tetraoxatetradecyl)amino)-1-oxoisoindolin-2-yl)piperidine-2,6-dione]
[1]; [2]
  IC50: 84.5 ± 17.3 nM

## COc1cc(N2CCC(N3CCN(C(=O)COCCOCCOCCOCCOCCNc4cccc5c4CN(C4CCC(=O)NC4=O)C5=O)CC3)CC2)ccc1Nc1ncc(Cl)c(Nc2ccccc2P(C)(C)=O)n1 (stereo not drawn) [SIAIS352057, 3-(4-((17-(4-(1-(4-((5-chloro-4-((2-(dimethylphosphono)phenyl)amino)pyrimidin-2-yl)amino)-3-methoxyphenyl)piperidin-4-yl)piperazin-1-yl)-17-oxo-3,6,9,12,15-pentaoxaheptadecyl)amino)-1-oxoisoindolin-2-yl)piperidine-2,6-dione]
[1]; [2]
  IC50: 102 ± 43.9 nM

## COc1cc(N2CCC(N(C)C(=O)CSc3cccc4c3CN(C3CCC(=O)NC3=O)C4=O)CC2)ccc1Nc1ncc(Cl)c(Nc2ccccc2P(C)(C)=O)n1 (stereo not drawn) [SIAIS353007, N-(1-(4-((5-chloro-4-((2-(dimethylphosphono)phenyl)amino)pyrimidin-2-yl)amino)-3-methoxyphenyl)piperidin-4-yl)-2-((2-(2,6-dioxopiperidin-3-yl)-1-oxoisoindolin-4-yl)thio)-N-methyl acetamide]
[1]; [2]
  IC50: 17.1 ± 10.9 nM

## COc1cc(N2CCC(N(C)C(=O)CCCCCSc3cccc4c3CN(C3CCC(=O)NC3=O)C4=O)CC2)ccc1Nc1ncc(Cl)c(Nc2ccccc2P(C)(C)=O)n1 (stereo not drawn) [SIAIS353009, N-(1-(4-((5-chloro-4-((2-(dimethylphosphono)phenyl)amino)pyrimidin-2-yl)amino)-3-methoxyphenyl)piperidin-4-yl)-6-((2-(2,6-dioxopiperidin-3-yl)-1-oxoisoindolin-4-yl)thio)-N-methyl hexanamide]
[1]; [2]
  IC50: 10.5 ± 5.6 nM

## COc1cc(N2CCC(N(C)CCCCCCSc3cccc4c3CN(C3CCC(=O)NC3=O)C4=O)CC2)ccc1Nc1ncc(Cl)c(Nc2ccccc2P(C)(C)=O)n1 (stereo not drawn) [SIAIS353041, 3-(4-((6-((1-(4-((5-chloro-4-((2-(dimethylphosphono)phenyl)amino)pyrimidin-2-yl)amino)-3-methoxyphenyl)piperidin-4-yl)(methyl)amino)hexyl)thio)-1-oxoisoindolin-2-yl)piperidine-2,6-dione]
[1]; [2]
  IC50: 0.5 ± 0.2 nM

## COc1cc(N2CCC(N(C)CCCCSc3cccc4c3CN(C3CCC(=O)NC3=O)C4=O)CC2)ccc1Nc1ncc(Cl)c(Nc2ccccc2P(C)(C)=O)n1 (stereo not drawn) [SIAIS353043, 3-(4-((4-((1-(4-((5-chloro-4-((2-(dimethylphosphono)phenyl)amino)pyrimidin-2-yl)amino)-3-methoxyphenyl)piperidin-4-yl) (methyl)amino)butyl)thio)-1-oxoisoindolin-2-yl)piperidine-2,6-dione]
[1]; [2]
  IC50: 0.9 ± 0.2 nM

## COc1cc(N2CCC(N(C)CCCCCSc3cccc4c3CN(C3CCC(=O)NC3=O)C4=O)CC2)ccc1Nc1ncc(Cl)c(Nc2ccccc2P(C)(C)=O)n1 (stereo not drawn) [SIAIS353044, 3-(4-((5-((1-(4-((5-chloro-4-((2-(dimethylphosphono)phenyl)amino)pyrimidin-2-yl)amino)-3-methoxyphenyl)piperidin-4-yl)(methyl)amino)pentyl)thio)-1-oxoisoindolin-2-yl)piperidine-2,6-dione]
[1]; [2]
  IC50: 1.1 ± 0.2 nM

## COc1cc(N2CCC(N(C)CCCC#Cc3cccc4c3CN(C3CCC(=O)NC3=O)C4=O)CC2)ccc1Nc1ncc(Cl)c(Nc2ccccc2P(C)(C)=O)n1 (stereo not drawn) [SIAIS353050, 3-(4-(5-((1-(4-((5-chloro-4-((2-(dimethylphosphono)phenyl)amino)pyrimidin-2-yl)amino)-3-methoxyphenyl)piperidin-4-yl)(methyl)amino)pent-1-yn-1-yl)-1-oxoisoindolin-2-yl)piperidine-2,6-dione]
[1]; [2]
  IC50: 4.8 ± 0.1 nM

## COc1cc(N2CCC(N3CCN(C(=O)NCCCCSc4cccc5c4CN(C4CCC(=O)NC4=O)C5=O)CC3)CC2)ccc1Nc1ncc(Cl)c(Nc2ccccc2P(C)(C)=O)n1 (stereo not drawn) [SIAIS353062, 4-(1-(4-((5-chloro-4-((2-(dimethylphosphono)phenyl)amino)pyrimidin-2-yl)amino)-3-methoxyphenyl)piperidin-4-yl)-N-(4-((2-(2,6-dioxopiperidin-3-yl)-1-oxoisoindolin-4-yl)thio)butyl)piperazine-1-carboxamide]
[1]; [2]
  IC50: 0.6 ± 0.4 nM
